From patent US20100016307A1, “NOVEL COMPOUNDS” (priority 2006, published 2010)
pIC50: −log10 of the molar value.

Key:
[1] = molecular target: T1, c-Met/cFms chimeric receptor in c-Met/cFms/NIH3T3 cells (Homo sapiens, UniProt P08581); assay: Cell-based assay for c-Met autophosphorylation (ELISA); conditions: compounds 1 h at 37° C., M-CSF (600 ng/ml) stimulation 10 min
T1 construct: The transmembrane/cytoplasmic domain fragment of c-Met (nucleotides 933 to 1390); expressed in transfected cells; the other entry of the earlier key: CSF1R (P07333, Macrophage colony-stimulating factor 1 receptor)
Excerpt: To generate a chimeric cDNA clone of c-Met with cFms, the extracellular domain of colony stimulating factor 1 receptor (CSF1R encoded by cFms gene) was fused with the transmembrane and cytoplasmic domain of c-Met. Reverse-transcribed RNA from human placenta was used as template to clone c-Met. The transmembrane/cytoplasmic domain fragment of c-Met (nucleotides 933 to 1390) containing a NotI site at both 5′- and 3′-end was generated by polymerase chain reaction (PCR) using following two oligonucleotides;
The resulting c-Met cDNA was cloned into pCR2.1-TOPO vector (c-Met/pCR2.1-TOPO). The extracellular domain fragment of cFms (nucleotides 1 to 512) containing BamHI site at 5′-end and NotI site at 3′-end was generated from human placenta cDNA by PCR using two oligonucleotides;
The resulting cFms cDNA was cloned into pcDNA3.1 vector (Invitrogen) using the BamHI and NotI sites (cFms/pcDNA3.1). To generate complete chimeric construct, the c-Met fragment (transmembrane and cytoplasmic domain) was digested with NotI sites (in c-Met/pCR2.1-TOPO vector) and then subcloned into cFms/pcDNA3.1 vector by NotI site (c-Met/cFms/pcDNA3.1).
NIH3T3 cells were grown in DMEM supplemented with 10% fetal bovine serum. NIH3T3 cells were transfected with c-Met/cFms/pcDNA3.1 vector alone using the calcium phosphate method according to the manufacturer's instructions. Three days after transfection, cells were selected with G418 (0.4 mgml^−1) for 14 days and the expression of c-Met chimeric receptor in the G418-resistant colonies of NIH3T3 (c-Met/cFms/NIH3T3) cells was analyzed by immunoblot. Autophosphorylation of c-Met induced by the stimulation with M-SCF, the ligand for CSF1R, was analyzed by immunoprecipitation and immunoblot, and prominent stable transfectant was selected for c-Met autophosphorylation assay. […]
c-Met/cFms/NIH3T3 cells were plated at 1×10^5 cells/well in collagen-coated 96-well microtitre plates and grown 24 h under standard culture conditions, followed by serum starvation for 1 h. The cells were incubated with compounds for 1 h at 37° C. and followed by M-CSF (600 ngml^−1) stimulation for 10 min at 37° C. The media was removed and the cells were lysed with 120 ul/well of lysis buffer (20 mM Tris-HCl pH8.0, 137 mM NaCl, 2 mM EDTA, 10% glycerol, 1% Triton X-100, 1 mM Na3VO4 and Protease Inhibitor Cocktail (Complete mini EDTA-free, Roche)). Then 100 ul/well of lysate was transferred to the antibody-coated (50 ng/well goat anti-cFms antibody in PBS) ELISA plate and incubated overnight at 4° C. Plates were washed five times with PBST (PBS containing 0.05% Tween-20). Primary antibody (biotin-conjugated anti-phosphotyrosine monoclonal antibody, PIERCE) was diluted 1:10,000 in PBST containing 1% BSA, added (100 ul/well) and incubated for 2 h at room temperature. After washing the plates five times with washing buffer, 100 ul/well of HRP-conjugated streptavidin (PIERCE) in PBST containing 1% BSA was added and incubated for 30 min at room temperature. After washing five times with PBST, 100 ul/well of SuperSignal ELISA Femto Substrate (PIERCE) was added and incubated for almost 1 min at room temperature. Chemiluminescence was measured using Wallac 1420 multilabel counter.
The IC50 was determined by using XLfit software (IDBS) with four-parameters, sigmoidal dose-response equation.

[2] = molecular target: T2, human Met Kinase (His6-GST fusion, aa 956-1390) (Homo sapiens, UniProt P08581); assay: In vitro screen: kinase assay of purified Met kinase; type: biochemical; conditions: purified Met 1 nM, 10 μM ATP, 1 μM peptide substrate, 1 hour at room temperature; read-out: pIC50 values at the c-Met receptor (in vitro screen results) (converted)
T2 construct: His6 (N); GST (Glutathione-S-Transferase) (N); made in house; host or cells: baculovirus expression system in Sf9 cells
Experimental: The peptide substrate, Biotin-aminohexyl-EEEEYFELVAKKKK-amide was purchased from SynPep Solid sample is dissolved at approximately 2.5 mM in water (concentration determined by amino acid analysis) and aliquots stored at −20° C.
Met Kinase: A fusion protein consisting of His6-tagged Glutathione-S-Transferase (GST) and amino acid residues 956-1390 of human Met Kinase (aa 956-1390 of Entrez Protein Accession # EAL24359.1 (met proto-oncogene (hepatocyte growth factor receptor) [Homo sapiens])) from “www.ncbi.nlm.nih.gov/entrez/”) is purified from baculovirus expression system in Sf9 cells using Ni chelate column, GSH column, followed by size exclusion chromatography. Purity greater than 90%, estimated by SDS-PAGE, is achieved. Samples in 25 mM HEPES pH 7.5, 100 mM NaCl, 0.1 mM EDTA are stored at −80° C. until use.
Assays are performed in 96 well (Costar, Catalog No. 3789) or 384 well plates (Costar, Catalog No. 3705). Assay conditions for the peptide phosphorylation reaction (in 10, 20, 25, or 40 μl volume) mix are 100 mM Hepes buffer, pH 7.4; 0.1 mgml^−1 BSA; 5 mM MgCl2; 1 mM DTT; 10 μM ATP; purified Met (1 nM final); and 1 μM peptide substrate. Compounds, titrated in DMSO, are evaluated at concentrations ranging from 50 μM to 0.2 nM. […] Reactions are incubated for 1 hour at room temperature and are stopped by addition of detection reagents containing, at final detection volume, 12.5 mM EDTA; 100 mM Hepes; 0.1 mg/ml BSA; 8 nM Streptavidin APC (Perkin Elmer catalog #CR130-150); 1 nM Europium-labelled anti-phosphotyrosine antibody (Perkin Elmer catalog #AD0067). Under the assay conditions defined above, the Km (apparent) for ATP is determined to be 40 μM.
The data for compound dose responses were plotted as % Inhibition, calculated with the data reduction formula 100*(1−[(U1−C2)/(C1−C2)]), versus concentration of compound, where U is the unknown value, C1 is the average control value obtained for DMSO, and C2 is the average control value obtained for 0.05M EDTA. Data were fitted to the curve described by: y=((Vmax*x)/(K+x)) where Vmax is the upper asymptote and K is the IC50. The results for each compound were recorded as pIC50 calculated as follows: pIC50=−Log 10(K).

T1 sequence (P08581 with tags, fused parts or gaps): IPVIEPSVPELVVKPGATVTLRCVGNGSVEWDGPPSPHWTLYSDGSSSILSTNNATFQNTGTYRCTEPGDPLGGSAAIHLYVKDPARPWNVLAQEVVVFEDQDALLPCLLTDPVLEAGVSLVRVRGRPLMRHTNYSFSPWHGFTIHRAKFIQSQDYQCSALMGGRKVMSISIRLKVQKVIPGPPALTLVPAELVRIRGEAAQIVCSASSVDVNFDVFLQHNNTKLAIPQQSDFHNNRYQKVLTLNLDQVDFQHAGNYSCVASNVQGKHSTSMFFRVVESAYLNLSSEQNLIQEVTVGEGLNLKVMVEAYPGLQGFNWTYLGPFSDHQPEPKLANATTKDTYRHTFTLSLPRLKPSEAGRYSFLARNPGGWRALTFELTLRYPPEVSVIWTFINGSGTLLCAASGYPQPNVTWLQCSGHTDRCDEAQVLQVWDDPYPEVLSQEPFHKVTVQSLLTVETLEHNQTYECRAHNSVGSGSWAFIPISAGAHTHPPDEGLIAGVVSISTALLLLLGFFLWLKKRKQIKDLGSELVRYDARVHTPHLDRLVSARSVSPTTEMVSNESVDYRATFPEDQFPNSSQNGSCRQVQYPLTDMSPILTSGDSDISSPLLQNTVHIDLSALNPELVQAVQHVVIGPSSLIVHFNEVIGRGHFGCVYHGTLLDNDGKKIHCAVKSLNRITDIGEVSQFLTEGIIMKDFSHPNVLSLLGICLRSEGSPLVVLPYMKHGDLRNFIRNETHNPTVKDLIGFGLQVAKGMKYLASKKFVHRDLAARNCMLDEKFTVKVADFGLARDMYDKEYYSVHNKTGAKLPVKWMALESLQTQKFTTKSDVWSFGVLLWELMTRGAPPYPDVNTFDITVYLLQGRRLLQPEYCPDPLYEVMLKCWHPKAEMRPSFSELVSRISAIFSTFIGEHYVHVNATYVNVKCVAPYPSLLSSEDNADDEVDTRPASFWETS
T2 sequence (P08581 956-1390): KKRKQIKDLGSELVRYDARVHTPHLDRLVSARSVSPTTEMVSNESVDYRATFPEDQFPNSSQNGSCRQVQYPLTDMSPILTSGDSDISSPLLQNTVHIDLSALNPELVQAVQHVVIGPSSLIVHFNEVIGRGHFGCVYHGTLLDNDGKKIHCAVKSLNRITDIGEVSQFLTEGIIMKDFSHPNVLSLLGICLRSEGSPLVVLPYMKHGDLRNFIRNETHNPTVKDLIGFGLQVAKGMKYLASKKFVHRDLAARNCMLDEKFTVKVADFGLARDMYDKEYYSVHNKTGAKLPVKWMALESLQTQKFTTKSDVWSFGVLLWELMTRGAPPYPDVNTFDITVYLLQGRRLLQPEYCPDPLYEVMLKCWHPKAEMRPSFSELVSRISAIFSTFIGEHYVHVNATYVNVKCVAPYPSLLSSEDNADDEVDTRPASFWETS

O=C(Nc1ccccc1)C1(C(=O)Nc2ccc(Nc3ccnc4[nH]ccc34)cc2)CC1 [Example 16, N^1-Phenyl-N^1-[4-(1H-pyrrolo[2,3-b]pyridin-4-ylamino)phenyl]-1,1-cyclopropanedicarboxamide]
pIC50 [1]: 4.50 to 5.50
IC50 [2]: 100 to 1000 nM

CN(C)Cc1cccc(NC(=O)c2cc3c(Oc4ccc(NC(=O)C5(C(=O)Nc6ccc(F)cc6)CC5)cc4)ccnc3[nH]2)c1 [Example 14, N^1-[4-({2-[({3-[(Dimethylamino)methyl]phenyl}amino)carbonyl]-1H-pyrrolo[2,3-b]pyridin-4-yl}oxy)phenyl]-N^1-(4-fluorophenyl)-1,1-cyclopropane dicarboxamide]
pIC50 [1]: 5.50 to 6.00
IC50 [2]: < 10 nM
